From patent publication US11999727B2 (Tango Therapeutics, Inc., priority 2020, dated 2024) come the findings set out here.

Test [1] has as its target T1, PRMT5 (Homo sapiens, UniProt O14744).
T1 construct: purchased Viva (custom protein)
The test is described as follows: PRMT5 biochemical IC50 assay with SAM as cofactor. To be noted: PRMT5, SAM as cofactor; read-out: SAM IC50.

Test [2] addresses T1, PRMT5. The test is described as follows: PRMT5 biochemical IC50 assay with no cofactor. As to conditions: PRMT5, no cofactor; read-out: No Cofactor/ rel IC50. The source says:
Table 1 indicates IC50 values (μM) against PRMT5 for exemplary compounds in the presence of SAM as cofactor, with no cofactor, and with MTA as cofactor, respectively (columns 4-6). […] Ki values can be calculated from the IC50 values as described in the Examples section. As detailed in the Examples section, for the assay performed in the presence of SAM, IC50=Ki×1.5 (Ki=IC50/1.5).

Test [3] addresses T1, PRMT5. Put plainly: PRMT5 biochemical IC50 assay with MTA as cofactor. To be noted: PRMT5, MTA as cofactor; read-out: MTA IC50.
Test [4] deals with HAP1 MTAP-intact cell line. The test is described as follows: SDMA in-cell western assay, HAP1 MTAP-intact. In kind it is cell-based. To be noted: Homo sapiens, HAP1, SDMA in-cell western, HAP1 MTAP-intact; read-out: MTAP HAP1 intact IC50. A digest of the protocol:
(§1)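 Isogenic HAP1 pair: the MTAP-intact line expresses endogenous MTAP, and the deleted line is MTAP-null. Symmetric dimethylarginine was detected by in-cell western and IC50 values derived for each line.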

In test [5] the test system is HAP1 MTAP-deleted cell line. The test is described as follows: SDMA in-cell western assay, HAP1 MTAP-deleted. In kind it is cell-based. As to conditions: for IC50: Homo sapiens, HAP1, SDMA in-cell western, HAP1 MTAP-deleted, read-out: HAP 1 MTAP deleted IC50; for MTAP intact/deleted ratio: IC50 ratio HAP1 MTAP-intact / HAP1 MTAP-deleted, SDMA in-cell western. In short, it runs like this:
as §1

The subject of test [6] is HAP1 MTAP-deleted cell line. Put plainly: Viability assay, MTAP-deleted cell line. Type of test: cell-based. To be noted: Homo sapiens, HAP1, viability assay, MTAP-deleted cell line; read-out: HAP1 MTAP deleted viability. The source says: Table 1 additionally indicates IC50 values in a viability assay for the MTAP-deleted cell line (column 10), indicating the effect of treatment with compound on cell survival.

T1 sequence (O14744 whole entry): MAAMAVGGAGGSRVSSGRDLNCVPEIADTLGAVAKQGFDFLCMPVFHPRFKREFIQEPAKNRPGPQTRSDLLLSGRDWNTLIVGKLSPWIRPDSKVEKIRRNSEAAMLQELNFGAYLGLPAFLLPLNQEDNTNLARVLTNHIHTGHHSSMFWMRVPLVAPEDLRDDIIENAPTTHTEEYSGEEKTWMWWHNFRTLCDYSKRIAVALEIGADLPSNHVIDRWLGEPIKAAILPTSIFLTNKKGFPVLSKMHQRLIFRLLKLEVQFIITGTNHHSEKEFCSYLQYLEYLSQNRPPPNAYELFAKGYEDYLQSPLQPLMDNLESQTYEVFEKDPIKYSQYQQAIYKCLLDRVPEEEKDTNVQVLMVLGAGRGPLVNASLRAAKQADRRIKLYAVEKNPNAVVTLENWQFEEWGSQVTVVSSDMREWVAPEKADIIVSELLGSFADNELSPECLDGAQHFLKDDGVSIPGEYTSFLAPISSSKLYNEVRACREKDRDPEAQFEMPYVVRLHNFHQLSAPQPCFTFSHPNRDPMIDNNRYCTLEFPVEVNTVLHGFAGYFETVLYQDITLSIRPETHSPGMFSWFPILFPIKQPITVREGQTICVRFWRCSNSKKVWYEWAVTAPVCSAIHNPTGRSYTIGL
T1 sequence (Q9BQA1 whole entry partner): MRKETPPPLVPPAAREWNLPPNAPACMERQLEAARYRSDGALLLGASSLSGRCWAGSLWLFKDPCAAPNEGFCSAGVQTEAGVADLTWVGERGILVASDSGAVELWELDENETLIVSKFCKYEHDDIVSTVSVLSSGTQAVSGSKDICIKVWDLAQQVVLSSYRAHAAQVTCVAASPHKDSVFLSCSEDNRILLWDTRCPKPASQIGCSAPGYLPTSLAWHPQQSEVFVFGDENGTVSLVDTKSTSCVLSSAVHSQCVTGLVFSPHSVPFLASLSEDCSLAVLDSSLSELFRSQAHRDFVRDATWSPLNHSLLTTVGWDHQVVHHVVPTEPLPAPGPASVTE

For the compound `NC(=O)c1cncc(NC(=O)C(=O)N2CCC3CCCCCC3C2)c1` (racemic) [Compound 133, 5-(2-{Decahydro-1H-cyclohepta[c]pyridin-2-yl}-2-oxoacetamido)pyridine-3-carboxamide], the IC50 is 50 to 500 nM on PRMT5 [1]; more than 500 nM on PRMT5 [2]; 50 to 500 nM on PRMT5 [3]; more than 1000 nM in test [4]; more than 1000 nM in test [5]; more than 10000 nM in test [6]. Moreover, in test [5], the “MTAP intact/deleted ratio” value was “B (an IC50 ratio greater than or equal to 3 fold but lower than 10 fold)”.
As for `Cc1cc(NC(=O)C(=O)N2CCCCC2C(C)C)cnc1N` (racemic) [Compound 135, N-(6-amino-5-methyl-3-pyridyl)-2-(2-isopropyl-1-piperidyl)-2-oxo-acetamide], the IC50 is 50 to 500 nM on PRMT5 [1]; 50 to 500 nM at PRMT5 [2]; less than 50 nM on PRMT5 [3]; more than 1000 nM in test [4]; 100 to 1000 nM in test [5]; more than 10000 nM in test [6]. In test [5], the “MTAP intact/deleted ratio” value is listed as “A (an IC50 ratio greater than or equal to 10 fold)”.
Consider `CC1(C)CCCC2CN(C(=O)C(=O)Nc3cncc(C(N)=O)c3)CCC21` (racemic) [Compound 141, 5-[2-(5,5-Dimethyl-decahydroisoquinolin-2-yl)-2-oxoacetamido]pyridine-3-carboxamide], for which the IC50 at PRMT5 [1] is 50 to 500 nM; at PRMT5 [2] it was 50 to 500 nM; at PRMT5 [3], less than 50 nM; in test [4] it was more than 1000 nM; in test [5] it was 100 to 1000 nM; in test [6], more than 10000 nM. Moreover, the “MTAP intact/deleted ratio” value in test [5] was “A (an IC50 ratio greater than or equal to 10 fold)”.
As to `CC1CCC(C2CCCC2)CN1C(=O)C(=O)Nc1cncc(C(N)=O)c1` (racemic) [Compound 143, 5-[2-(5-Cyclopentyl-2-methylpiperidin-1-yl)-2-oxoacetamido]pyridine-3-carboxamide], the IC50 is more than 500 nM at PRMT5 [1]; more than 500 nM on PRMT5 [2]; 50 to 500 nM on PRMT5 [3]; more than 1000 nM in test [4]; more than 1000 nM in test [5]; more than 10000 nM in test [6]. In addition, the “MTAP intact/deleted ratio” value in test [5] is recorded as “C (an IC50 ratio of less than 3 fold)”.
With `Cc1cc(NC(=O)C(=O)N2C[C@H](C)CC[C@H]2C2CCC(C(C)(C)C)CC2)cnc1N` (mixture of isomers) [Compound 145, rac-N-(6-amino-5-methyl-3-pyridyl)-2-[(2S,5R)-2-(4-tert-butylcyclohexyl)-5-methyl-1-piperidyl]-2-oxo-acetamide], the IC50 at PRMT5 [1] was 50 to 500 nM; on PRMT5 [2], 50 to 500 nM; at PRMT5 [3], less than 50 nM; in test [4] it was more than 1000 nM; in test [5] it was 100 to 1000 nM; in test [6], more than 10000 nM. Moreover, the “MTAP intact/deleted ratio” value in test [5] was “C (an IC50 ratio of less than 3 fold)”.
Consider `Cc1cc(NC(=O)C(=O)N2C[C@H](C)CC[C@H]2c2cccnc2)cnc1N` (racemic) [Compound 146, N-(6-amino-5-methyl-3-pyridyl)-2-[(2S,5R)-5-methyl-2-(3-pyridyl)-1-piperidyl]-2-oxo-acetamide], for which the IC50 was 50 to 500 nM at PRMT5 [1]; 50 to 500 nM at PRMT5 [2]; less than 50 nM on PRMT5 [3]; more than 1000 nM in test [4]; less than 100 nM in test [5]; 1000 to 10000 nM in test [6].
For the compound `Cc1cc(NC(=O)C(=O)N2C[C@H](C)CC[C@H]2C2CCCC(C)(C)C2)cnc1N` (mixture of isomers) [Compound 150, N-(6-amino-5-methyl-3-pyridyl)-2-[(2S,5R)-2-(3,3-dimethylcyclohexyl)-5-methyl-1-piperidyl]-2-oxo-acetamide], the IC50 is 50 to 500 nM on PRMT5 [1]; 50 to 500 nM at PRMT5 [2]; 50 to 500 nM on PRMT5 [3]; more than 1000 nM in test [4]; 100 to 1000 nM in test [5]; 1000 to 10000 nM in test [6]. Further, the “MTAP intact/deleted ratio” value in test [5] is given as “C (an IC50 ratio of less than 3 fold)”.
For `CC1Cc2cc([C@@H]3CC[C@@H](C)CN3C(=O)C(=O)Nc3cncc(C(N)=O)c3)ccc2O1` (mixture of isomers) [Compound 151, rac-5-{2-[(2R,5S)-5-Methyl-2-(2-methyl-2,3-dihydro-1-benzofuran-5-yl)piperidin-1-yl]-2-oxoacetamido}pyridine-3-carboxamide], the IC50 at PRMT5 [1] was 50 to 500 nM; at PRMT5 [2], 50 to 500 nM; on PRMT5 [3], less than 50 nM; in test [4], more than 1000 nM; in test [5] it was less than 100 nM; in test [6], 1000 to 10000 nM. Besides, the “MTAP intact/deleted ratio” value in test [5] is “A (an IC50 ratio greater than or equal to 10 fold)”.
As for `Cc1cc(C)n(-c2cccc([C@@H]3CC[C@@H](C)CN3C(=O)C(=O)Nc3cncc(C(N)=O)c3)c2)n1` (racemic) [Compound 153, rac-5-{2-[(2R,5S)-2-[3-(3,5-Dimethyl-1H-pyrazol-1-yl)phenyl]-5-methylpiperidin-1-yl]-2-oxoacetamido}pyridine-3-carboxamide], the IC50 at PRMT5 [1] is 50 to 500 nM; at PRMT5 [2] it was 50 to 500 nM; at PRMT5 [3] it was 50 to 500 nM; in test [4], more than 1000 nM; in test [5], less than 100 nM; in test [6], 1000 to 10000 nM. Further, the “MTAP intact/deleted ratio” value in test [5] is given as “A (an IC50 ratio greater than or equal to 10 fold)”.
For `C[C@@H]1CC[C@@H](c2ccccc2)N(C(=O)C(=O)Nc2cncc(C(N)=O)c2)[C@@H]1C` (racemic) [Compound 154, rac-5-[[2-[(2R,3R,6S)-2,3-dimethyl-6-phenyl-1-piperidyl]-2-oxo-acetyl]amino]pyridine-3-carboxamide], the IC50 at PRMT5 [1] is 50 to 500 nM; at PRMT5 [2], 50 to 500 nM; on PRMT5 [3], less than 50 nM; in test [4] it was more than 1000 nM; in test [5], more than 1000 nM; in test [6] it was more than 10000 nM. Further, the “MTAP intact/deleted ratio” value in test [5] is listed as “B (an IC50 ratio greater than or equal to 3 fold but lower than 10 fold)”.
As to `C[C@@H]1CC[C@@H](C2CCC2)N(C(=O)C(=O)Nc2cncc(C(N)=O)c2)C1` (racemic) [Compound 155, 5-[[2-[(2R,5S)-2-cyclobutyl-5-methyl-1-piperidyl]-2-oxo-acetyl]amino]pyridine-3-carboxamide], the IC50 on PRMT5 [1] is 50 to 500 nM; at PRMT5 [2], 50 to 500 nM; at PRMT5 [3], less than 50 nM; in test [4], more than 1000 nM; in test [5], 100 to 1000 nM; in test [6], more than 10000 nM. In addition, the “MTAP intact/deleted ratio” value in test [5] is listed as “A (an IC50 ratio greater than or equal to 10 fold)”.
Consider `Cc1cc(C)n(-c2ccc([C@@H]3CC[C@@H](C)CN3C(=O)C(=O)Nc3cncc(C(N)=O)c3)cc2)n1` (racemic) [Compound 157, rac-5-{2-[(2R,5S)-2-[4-(3,5-Dimethyl-1H-pyrazol-1-yl)phenyl]-5-methylpiperidin-1-yl]-2-oxoacetamido}pyridine-3-carboxamide], for which the IC50 is 50 to 500 nM at PRMT5 [1]; 50 to 500 nM on PRMT5 [2]; 50 to 500 nM on PRMT5 [3]; more than 1000 nM in test [4]; more than 1000 nM in test [5]; more than 10000 nM in test [6]. Moreover, the “MTAP intact/deleted ratio” value in test [5] is on record as “B (an IC50 ratio greater than or equal to 3 fold but lower than 10 fold)”.
